Data taken from patent US6537744B1, “Use of biomarkers in saliva to evaluate the toxicity of agents and the function of tissues in both biomedical and environmental applications” (priority 1995, dated 2003).

Test system: carboxylase in human saliva
Experiment: Inhibition of carboxylase in human saliva (p-nitrophenylvalerate hydrolysis, 400 nm)
Format: biochemical
Procedure: The carboxylase activity in saliva samples is monitored by the hydrolysis of p-nitrophenylvalerate to the readily detectable p-nitrophenol. The concentration of p-nitrophenol in the sample is measured spectrophotometrically at 400 nm, and the value is calculated from p-nitrophenol standard curve (Table 3 and FIG. 4). Values for carboxylase activity in saliva (nmol. min-1 per mL of saliva) are presented in Tables 4-8 and showing in FIG. 5 and FIG. 6. The average specific activity for carboxylase in human saliva is about 47 nmol min^−1 per mL.
The assay for carboxylase consists of 4 mL of tris-HCl buffer (pH 7.0) that contain 25 μL of p-nitrophenylvalerate (13.8 mg/mL of alcohol) and 50-500 μL of human saliva. […] In the inhibition study, the agent is incubated with saliva for about 15-20 minutes before the addition of p-nitrophenylvalerate. Organophosphate concentration is verified by gas chromatography using standard methods as described by Knaak et al. (1993).

[1] = 1.0 ng/ml, Test #2, 0.2 mL saliva, 15 min preincubation at 37° C., 30 min with substrate
[2] = 2.9 ng/ml, Test #2, 0.2 mL saliva, 15 min preincubation at 37° C., 30 min with substrate
[3] = 8.6 ng/ml, Test #2, 0.2 mL saliva, 15 min preincubation at 37° C., 30 min with substrate
[4] = 26 ng/mL, Test #1, 100 μL saliva, 15 min preincubation at 37° C.
[5] = 52 ng/mL, Test #1, 100 μL saliva, 15 min preincubation at 37° C.
[6] = 78 ng/mL, Test #1, 100 μL saliva, 15 min preincubation at 37° C.
[7] = 156 ng/mL, Test #1, 100 μL saliva, 15 min preincubation at 37° C.
[8] = 312 ng/mL, Test #1, 100 μL saliva, 15 min preincubation at 37° C.
[9] = 625 ng/mL, Test #1, 100 μL saliva, 15 min preincubation at 37° C.
[10] = 175 μg/ml, test #1, 200 μL saliva, 15 min preincubation, 37° C.
[11] = .04 ng/ml, Test #2, 0.2 mL saliva, 15 min preincubation at 37° C., 30 min with substrate
[12] = .1 ng/ml, Test #2, 0.2 mL saliva, 15 min preincubation at 37° C., 30 min with substrate
[13] = .3 ng/ml, Test #2, 0.2 mL saliva, 15 min preincubation at 37° C., 30 min with substrate

With CCOP(N)(=O)Oc1ccccc1C(=O)OC(C)C (stereo not drawn) [DNIO, des N-Isofenphos-oxon] as the compound, how does the “% Activity” value [1] read?
The value was 57%.

And the “% Inhibition” value [1]?
The value was 43%.

What about the “Absorb. at 400 nm” value [1] of the same compound?
Its value is “.46”.

And the “nmol/min per mg protein” value [1]?
The value was 7.46 nmol/min per mg protein.

And the “% Activity” value [2]?
The value was 50%.

What about the “% Inhibition” value [2] of the same compound?
The value was 50%.

What about the “Absorb. at 400 nm” value [2] of the same compound?
The value was “.40”.

What about the “nmol/min per mg protein” value [2] of the same compound?
The value was 6.55 nmol/min per mg protein.

And the “% Activity” value [3]?
The value was 40%.

And the “% Inhibition” value [3]?
The value was 60%.

What about the “Absorb. at 400 nm” value [3] of the same compound?
Its value is “.32”.

And the “nmol/min per mg protein” value [3]?
The value was 5.24 nmol/min per mg protein.

And the “% Activity” value [4]?
The value was 3%.

What about the “% Inhibition” value [4] of the same compound?
Its value is 97%.

What about the “Absorb. at 400 nm for 20 min.” value [4] of the same compound?
The value was “.02”.

What about the “Absorb. at 400 nm for 40 min.” value [4] of the same compound?
Its value is “.03”.

What about the “Absorb. at 400 nm for 80 min” value [4] of the same compound?
Its value is “.02”.

What about the “% Activity” value [5] of the same compound?
The value was 5%.

And the “% Inhibition” value [5]?
The value was 95%.

What about the “Absorb. at 400 nm for 20 min.” value [5] of the same compound?
The value was “.03”.

And the “Absorb. at 400 nm for 40 min.” value [5]?
Its value is “.03”.

What about the “Absorb. at 400 nm for 80 min” value [5] of the same compound?
The value was “.03”.

And the “% Activity” value [6]?
Its value is 3%.

And the “% Inhibition” value [6]?
The value was 97%.

And the “Absorb. at 400 nm for 20 min.” value [6]?
The value was “.02”.

And the “Absorb. at 400 nm for 40 min.” value [6]?
The value was “.02”.

And the “Absorb. at 400 nm for 80 min” value [6]?
The value was “.02”.

And the “% Activity” value [7]?
The value was 5%.

And the “% Inhibition” value [7]?
Its value is 95%.

What about the “Absorb. at 400 nm for 20 min.” value [7] of the same compound?
Its value is “.02”.

What about the “Absorb. at 400 nm for 40 min.” value [7] of the same compound?
Its value is “.02”.

And the “Absorb. at 400 nm for 80 min” value [7]?
Its value is “.03”.

What about the “% Activity” value [8] of the same compound?
Its value is 13%.

What about the “% Inhibition” value [8] of the same compound?
The value was 87%.

And the “Absorb. at 400 nm for 20 min.” value [8]?
The value was “.04”.

And the “Absorb. at 400 nm for 40 min.” value [8]?
The value was “.06”.

What about the “Absorb. at 400 nm for 80 min” value [8] of the same compound?
The value was “.08”.

What about the “% Activity” value [9] of the same compound?
Its value is 16%.

What about the “% Inhibition” value [9] of the same compound?
The value was 84%.

And the “Absorb. at 400 nm for 20 min.” value [9]?
Its value is “.05”.

What about the “Absorb. at 400 nm for 40 min.” value [9] of the same compound?
Its value is “.07”.

What about the “Absorb. at 400 nm for 80 min” value [9] of the same compound?
The value was “.10”.

What about the “% Act.” value (5 μg/mL, Test #2, 50 μL saliva, 20 min preincubation) of the same compound?
The value was 35%.

And the “% Inhib.” value [10]?
Its value is 92%.

And the “Absorb. at 400 nm for 20 min.” value [10]?
Its value is “.16”.

And the “Absorb. at 400 nm for 60 min.” value [10]?
Its value is “.55”.

What about the “% Activity” value [11] of the same compound?
Its value is 94%.

And the “% Inhibition” value [11]?
The value was 6%.

What about the “Absorb. at 400 nm” value [11] of the same compound?
Its value is “.75”.

And the “nmol/min per mg protein” value [11]?
The value was 12.31 nmol/min per mg protein.

What about the “% Activity” value [12] of the same compound?
The value was 83%.

And the “% Inhibition” value [12]?
The value was 17%.

And the “Absorb. at 400 nm” value [12]?
The value was “.66”.

What about the “nmol/min per mg protein” value [12] of the same compound?
Its value is 10.87 nmol/min per mg protein.

What about the “% Activity” value [13] of the same compound?
The value was 78%.

What about the “% Inhibition” value [13] of the same compound?
Its value is 22%.

What about the “Absorb. at 400 nm” value [13] of the same compound?
The value was “.62”.

What about the “nmol/min per mg protein” value [13] of the same compound?
Its value is 10.21 nmol/min per mg protein.

And the “effective concentration for 50% inhibition EC50” value (carboxylase, human saliva)?
The value was 3 ng/mL.

And the “inhibition of carboxylase (in words)” value (human saliva)?
The value was “inhibited”.
